Converted amounts (≈) assume the structure as drawn.
Legend:
Test in all cases: In vitro antibacterial evaluation: minimum inhibitory concentration (MIC), broth dilution method
Format in all cases: cell-based
Conditions in all cases: broth dilution, 18 hours at 35° C.
[1] = system: Enterococcus sp.
In short: (§1)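 NCCLS M7-A2 broth dilution; Muller-Hinton II […]; 5×10^5 CFU/mL; 64-0.06 μg/mL. MIC = lowest concentration with no growth.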

[2] = system: Staphylococcus sp.
In short: as §1

[3] = system: Streptococcus sp.
In short: as §1

[4] = system: Escherichia coli

MIC Enterococcus avium (GC 4558) ([1]; Enterococcus avium (GC 4558)): 8 µg/mL (≈ 6.79 µM) | MIC Enterococcus faecalis (ATCC 29212) ([1]; Enterococcus faecalis (ATCC 29212)): 64 µg/mL (≈ 54.3 µM) | MIC Enterococcus faecalis (GC 2242) ([1]; Enterococcus faecalis (GC 2242)): 64 µg/mL (≈ 54.3 µM) | MIC Enterococcus faecalis (GC 2691) ([1]; Enterococcus faecalis (GC 2691)): 64 µg/mL (≈ 54.3 µM) | MIC Enterococcus faecalis (GC 4553) ([1]; Enterococcus faecalis (GC 4553)): 16 µg/mL (≈ 13.6 µM) | MIC Enterococcus faecalis (GC 6189) ([1]; Enterococcus faecalis (GC 6189)): 64 µg/mL (≈ 54.3 µM) | MIC Enterococcus faecium (GC 2243) ([1]; Enterococcus faecium (GC 2243)): 32 µg/mL (≈ 27.2 µM) | MIC Enterococcus faecium (GC 4556) ([1]; Enterococcus faecium (GC 4556)): 4 µg/mL (≈ 3.39 µM) | MIC Enterococcus faecium (GC 4557) ([1]; Enterococcus faecium (GC 4557)): 4 µg/mL (≈ 3.39 µM) | MIC Enterococcus avium (GC 4558) [1]: 8 µg/mL (≈ 6.79 µM) | MIC Enterococcus faecalis (ATCC 29212) [1]: 64 µg/mL (≈ 54.3 µM) | MIC Enterococcus faecalis (GC 2242) [1]: 64 µg/mL (≈ 54.3 µM) | MIC Enterococcus faecalis (GC 2691) [1]: 64 µg/mL (≈ 54.3 µM) | MIC Enterococcus faecalis (GC 4553) [1]: 16 µg/mL (≈ 13.6 µM) | MIC Enterococcus faecalis (GC 6189) [1]: 64 µg/mL (≈ 54.3 µM) | MIC Enterococcus faecium (GC 2243) [1]: 32 µg/mL (≈ 27.2 µM) | MIC Enterococcus faecium (GC 4556) [1]: 4 µg/mL (≈ 3.39 µM) | MIC Enterococcus faecium (GC 4557) [1]: 4 µg/mL (≈ 3.39 µM) | MIC Coagulase Negative Staphylococcus (GC 4547) [2]: 8 µg/mL (≈ 6.79 µM) | MIC Coagulase Negative Staphylococcus (GC 4548) [2]: 8 µg/mL (≈ 6.79 µM) | MIC Coagulase Negative Staphylococcus (GC 4549) [2]: 16 µg/mL (≈ 13.6 µM) | MIC Coagulase Negative Staphylococcus (GC 4551) [2]: 16 µg/mL (≈ 13.6 µM) | MIC Coagulase Negative Staphylococcus (GC 6257) [2]: 4 µg/mL (≈ 3.39 µM) | MIC Staphylococcus aureus SMITH (GC 4543) [2]: 16 µg/mL (≈ 13.6 µM) | MIC Staphylococcus aureus-SMITH (GC 4543) ([2]; strain SMITH GC 4543): 16 µg/mL (≈ 13.6 µM) | MIC Streptococcus agalactiae (GC 4564) ([3]; Streptococcus agalactiae (GC 4564)): 32 µg/mL (≈ 27.2 µM) | MIC Streptococcus pneumoniae (ATCC 6301) ([3]; Streptococcus pneumoniae (ATCC 6301)): 16 µg/mL (≈ 13.6 µM) | MIC Streptococcus pneumoniae (GC 1894) ([3]; Streptococcus pneumoniae (GC 1894)): 32 µg/mL (≈ 27.2 µM) | MIC Streptococcus pneumoniae (GC 4565) ([3]; Streptococcus pneumoniae (GC 4565)): 64 µg/mL (≈ 54.3 µM) | MIC Streptococcus pyogenes (GC 4563) ([3]; Streptococcus pyogenes (GC 4563)): 8 µg/mL (≈ 6.79 µM) | MIC Streptococcus agalactiae (GC 4564) [3]: 32 µg/mL (≈ 27.2 µM) | MIC Streptococcus pneumoniae (ATCC 6301) [3]: 16 µg/mL (≈ 13.6 µM) | MIC Streptococcus pneumoniae (GC 1894) [3]: 32 µg/mL (≈ 27.2 µM) | MIC Streptococcus pneumoniae (GC 4565) [3]: 64 µg/mL (≈ 54.3 µM) | MIC Streptococcus pyogenes (GC 4563) [3]: 8 µg/mL (≈ 6.79 µM) | MIC Escherichia coli (GC 4560) [4]: 32 µg/mL (≈ 27.2 µM)
SMILES: CC(c1ccccc1)C1NC(=O)CNC(=O)C(CO)NC(=O)C(C(O)C2CNC(=N)N2C2OC(CO)C(O)C(O)C2O)NC(=O)C(C(O)C2CNC(=N)N2)NC(=O)C(Cc2ccc3oc(-c4ccc(OCc5ccccc5)cc4)nc3c2)NC1=O (stereo not drawn) [Example 31, Cyclo[3-[2-[4-(phenylmethoxy)phenyl]-1,3-benzoxazol-5-yl]alanyl-3-(2-iminoimidazolidin-4-yl)seryl-3-(3-hexopyranosyl-2-iminoimidazolidin-4-yl)serylserylglycyl-β-methyl-phenylalanyl]]
MIC Staphylococcus haemolyticus (GC 4546) [2]: 8 µg/mL (≈ 6.79 µM)

— patent US8247211B2, “Glycopeptide antibiotics” (American Cyanamid Company, priority 2001, dated 2012)
